Values of other authors in patent US6183777A (priority 1997, dated 2001).

Assays:
[1] = test system: Alzheimer's Disease patients; conditions: mild to medium AD
[2] = test system: cerebral acetyl choline; conditions: in particular in the cerebral cortex
[3] = in vivo

Cl.Nc1c2c(nc3ccccc13)CCCC2 [Tacrine, 1,2,3,4-tetrahydro-9-acridinamine hydrochloride]
memory and recognition of patients [1]: can significantly improve the memory and recognition of patients
cerebral acetyl choline concentration [2]: may increase cerebral acetyl choline concentration
adverse effects [3]: gastro-intestinal side effects, such as nausea, vomiting, diarrhea, dyspepsia and loss of appetite; kinetic ataxia of voluntary muscles and myalgia; sweating and bradycardia induced by overexcitement of vagus nerues
hepatoxicity [3]: may cause reversible hepatoxicity
oral bioavailability, variation between individuals: may significantly vary in different individuals
